Test results from patent US12448400B2, “KRAS G12D modulating compounds” (priority 2023, dated 2025).

Key:
[1] = Mouse oral cassette pharmacokinetics; assay type: in vivo, male CD-1 mice; details: male, CD-1, mouse, in vivo, po, 30 mg/kg
Method in brief: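 Male CD-1 mice (n=4) dosed orally by gavage at 30 mg-eq./kg per compound as cassettes of 1–3 compounds in 10 w/v % Captisol/50 mM citrate. Plasma sampled 0.5–24 h post dose, analysed by LC-MS/MS; Cmax and AUClast from non-compartmental analysis.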

[2] = Dog oral pharmacokinetics; set-up: species or system Male Beagle dogs; details: male, Beagle, in vivo
Description: Dog Oral Pharmacokinetics
(§1) Test compounds were formulated in solution formulations (10% w/v % Sulfobutylether-p-cyclodextrin; 90% w/v % 50 mM Citrate Buffer) and administered orally at 5 or 10 mg-eq./kg to a group of three Male Beagle dogs. The animals were fasted overnight prior to dose administration and up to four hours after dosing. The test articles were administrated by oral gavage at a dose volume of 5 ml/kg.
(§2) Blood samples were collected into K2EDTA tubes at predose and 0.25, 0.5, 1, 2, 4, 6, 8, 12, 24 hours post dose, and once daily collection post 24 hours up to 168 hours. Whole blood were stored on wet ice and processed to plasma by centrifugation (3500 rpm for 10 minutes at 5° C.) within 1 hour of collection. Plasma samples were placed in Micronic 96 well tubes and stored at −80° C. until transferred. Plasma concentration of the test compounds was determined by LC-MS/MS. Pharmacokinetic parameters were estimated using non-compartment model analysis. The maximum observed concentration (Cmax) and area under the curve from time of dosing to last measured concentration (AUClast) were calculated and reported.

GP2D (KRAS G12D) cells = experiment: 2D cell viability assay (CellTiter-Glo); assay type: cell-based; details: 96 h; GP2D cells, 4 days, CellTiter-Glo luminescence; read-out: G12D 2D EC50
Method in brief: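 GP2D (KRAS G12D) cells, 1000/well in RPMI + 10% FBS, were plated onto compound (1:3 DMSO series) and grown 4 days at 37 °C, 5% CO2 in 2D. CellTiter-Glo luminescence was read; EC50 is the concentration giving 50% signal decrease, from sigmoidal fit.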

[3] = Rat oral pharmacokinetics; set-up: species or system Male Sprague Dawley rats; details: male, Sprague Dawley, in vivo
Description: Rat Oral Pharmacokinetics
as §1, with “(10” for “(10%”, “orally” for “orally at 5 or 10 mg-eq./kg”, “Sprague Dawley rats.” for “Beagle dogs.”, “mL-eq/kg.” for “ml/kg.”
as §2, with “collected” for “collected into K2EDTA tubes”, “12, 24, 48 and 72” for “12, 24”, “post dose into K2EDTA tubes” for “post dose,”, “and” for “and once daily collection post 24 hours up to 168 hours. Whole blood were”, “ice until processed. Whole blood was” for “ice and”, “within 30 minutes” for “within 1 hour”

Row | Compound | Mouse Parent AUC [1] [µM·h] | Dog Parent % F ([2]; 10 mg/kg) [%] | Dog Parent AUC ([2]; 10 mg/kg) [µM·h] | EC50 (GP2D (KRAS G12D) cells) [nM] | Mouse Parent AUC (nM * h) [1] | Rat Parent % F ([3]; 15 mg/kg) [%] | Rat Parent AUC ([3]; 15 mg/kg) [µM·h] | Dog Parent AUC (nM * h) ([2]; 10 mg/kg) | Dog Parent % F ([2]; 5 mg/kg) [%] | Dog Parent AUC (nM * h) ([2]; 5 mg/kg) | Rat Parent % F ([3]; 7.5 mg/kg) [%] | Rat Parent AUC ([3]; 7.5 mg/kg) [µM·h] | Dog Parent AUC ([2]; 5 mg/kg) [µM·h]
1 | C#Cc1c(F)ccc2cc(O)cc(-c3nc4c5c(nc(OC[C@@]67CCCN6C[C@H](F)C7)nc5c3F)N3C[C@H]5CC[C@H](N5)[C@H]3CCC4)c12 [Comp. Ex. 75, reference compound] | 0.051 | 0.6 | 0.071 | – | – | – | – | – | – | – | – | – | –
2 | Cc1oc(=O)oc1CN1[C@@H]2CC[C@H]1[C@H]1CCCc3nc(-c4cc(O)cc5ccc(F)c(OC(F)(F)F)c45)c(F)c4nc(OC[C@@]56CCCN5C[C@H](F)C6)nc(c34)N1C2 [Example 18, 4-(((6aR,7S,10R)-1-fluoro-2-(7-fluoro-3-hydroxy-8-(trifluoromethoxy)naphthalen-1-yl)-13-(((2R,7aS)-2-fluorotetrahydro-1H-pyrrolizin-7a(5H)-yl)methoxy)-5,6,6a,7,8,9,10,11-octahydro-4H-3,11a,12,14,15-pentaaza-7,10-methanocyclohepta[4,5]cycloocta[1,2,3-de]naphthalen-15-yl)methyl)-5-methyl-1,3-dioxol-2-one] | – | 12 | 0.6 | – | – | – | – | – | – | – | – | – | –
3 | C#Cc1c(F)ccc2cc(N)cc(-c3nc4c5c(nc(OC[C@@]67CCCN6C[C@H](F)C7)nc5c3F)N3C[C@H]5CC[C@@H]([C@H]3CCC4)N5Cc3oc(=O)oc3C)c12 [Example 33, 4-(((6aR,7S,10R)-2-(3-amino-8-ethynyl-7-fluoronaphthalen-1-yl)-1-fluoro-13-(((2R,7aS)-2-fluorotetrahydro-1H-pyrrolizin-7a(5H)-yl)methoxy)-5,6,6a,7,8,9,10,11-octahydro-4H-3,11a,12,14,15-pentaaza-7,10-methanocyclohepta[4,5]cycloocta[1,2,3-de]naphthalen-15-yl)methyl)-5-methyl-1,3-dioxol-2-one] | – | 11 | – | 0.71 | 1,500 nM * h | 3.3 | 0.18 | 2,200 nM * h | – | – | – | – | –
4 | C#Cc1c(F)ccc2cc(N)cc(-c3nc4c5c(nc(OC[C@@]67CCCN6C[C@H](F)C7)nc5c3F)N3C[C@H]5CC[C@@H]([C@H]3CCC4)N5Cc3oc(=O)oc3CC)c12 [Example 34, 4-(((6aR,7S,10R)-2-(3-amino-8-ethynyl-7-fluoronaphthalen-1-yl)-1-fluoro-13-(((2R,7aS)-2-fluorotetrahydro-1H-pyrrolizin-7a(5H)-yl)methoxy)-5,6,6a,7,8,9,10,11-octahydro-4H-3,11a,12,14,15-pentaaza-7,10-methanocyclohepta[4,5]cycloocta[1,2,3-de]naphthalen-15-yl)methyl)-5-ethyl-1,3-dioxol-2-one] | – | – | – | 0.4 | 1,300 nM * h | 5 | 0.27 | – | 12 | 1,200 nM * h | – | – | –
5 | C#Cc1c(F)ccc2cc(O)cc(-c3nc4c5c(nc(OC[C@@]67CCCN6[C@H](COC(C(F)(F)F)(C(F)(F)F)C(F)(F)F)CC7)nc5c3F)N3C[C@H]5CC[C@@H]([C@H]3CCC4)N5Cc3oc(=O)oc3C)c12 [Example 38, 4-(((6aR,7S,10R)-2-(8-ethynyl-7-fluoro-3-hydroxynaphthalen-1-yl)-1-fluoro-13-(((3S,7aS)-3-(((1,1,1,3,3,3-hexafluoro-2-(trifluoromethyl)propan-2-yl)oxy)methyl)tetrahydro-1H-pyrrolizin-7a(5H)-yl)methoxy)-5,6,6a,7,8,9,10,11-octahydro-4H-3,11a,12,14,15-pentaaza-7,10-methanocyclohepta[4,5]cycloocta[1,2,3-de]naphthalen-15-yl)methyl)-5-methyl-1,3-dioxol-2-one] | – | – | – | 0.25 | 2,100 nM * h | – | – | – | 4.2 | – | 3 | 0.28 | 0.21
